# Data reported in US9821070B2 (OPKO Biologics Ltd., priority 2012, dated 2017).
# Columns and labels:
# [1] = biological target: GLP-1 receptor (Homo sapiens, UniProt P43220); conditions: cAMP Hunter CHO-K1 GLP1R
# Method: Cells cAMP concentrations were quantified by HTRF assay (Cisbio 62AM4PEB) and EC50 parameter was analyzed by PRISM software. The cAMP Hunter™ CHO-K1 GLP1R secretes cAMP upon binding of the ligand to the receptor. […] Ligands were diluted in diluent contains IBMX and were added in duplicate to the culture wells for 30 min at 37° C. with 5% CO2. […] The dose dependent curves were established and the binding affinities (EC50) of various ligands were calculated using PRISM software by applying the best fit dose response model (Four parameters).
# [2] = Obese (ob/ob) mouse model, Study 2 (MOD-6031 chronic pharmacology); assay type: in vivo, male ob/ob mice; conditions: OXM 6000 nmoles/kg bid sc for 32 days
# Method: Body weight, food and water intake were recorded daily. […] Body weight, food and water intake were measured daily.
# Oral glucose tolerant test (OGTT) studies were performed on days 2 and day 30 (FIGS. 10 and 11, respectively).
# Sequence of GLP-1 receptor (P43220 24-463): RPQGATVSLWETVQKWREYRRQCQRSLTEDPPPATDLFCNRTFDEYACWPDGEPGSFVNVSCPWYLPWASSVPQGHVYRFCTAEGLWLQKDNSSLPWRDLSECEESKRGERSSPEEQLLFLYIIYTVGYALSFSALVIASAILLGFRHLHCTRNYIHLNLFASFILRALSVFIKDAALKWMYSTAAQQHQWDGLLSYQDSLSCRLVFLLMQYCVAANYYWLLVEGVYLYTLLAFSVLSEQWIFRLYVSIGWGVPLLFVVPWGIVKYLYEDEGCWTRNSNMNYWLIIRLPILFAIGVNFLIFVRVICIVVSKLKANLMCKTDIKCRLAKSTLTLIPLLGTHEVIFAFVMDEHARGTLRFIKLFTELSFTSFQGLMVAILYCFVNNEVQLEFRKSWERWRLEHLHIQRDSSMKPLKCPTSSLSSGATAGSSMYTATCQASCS
substance,measurement,setting,value
Oxyntomodulin [OXM],higher GLP-1 receptor binding activation compared to the heterogeneous PEG30-FMS-OXM,[1],5.9 fold
same,body weight reduction over the study,[2],10.3%
